From US9173935B2, “Phospholipid drug analogs” (Telormedix SA, priority 2010, dated 2015)
Like-named read-outs stand apart in the source and are kept apart here.

Legend:
[1] = target: CYP2E1 (Homo sapiens (Human), UniProt P05181); assay: Fluorescent High Throughput P450 assay, CYP2E1; type: biochemical; conditions: substrate MFC; read-out: CYP2E1 IC50 (Mean ± S.D.)
Description: Inhibition of the P450 isoforms was measured in specific assays using specific substrates that become fluorescent upon CYP metabolism. Compounds, dissolved in ACN (acetonitrile) (CYP2E1, CYP2C8, CYP2B6, CYP3A5) or DMSO (all remaining isoforms), were tested in duplicate (n=2) in concentration-response curves (eight concentrations) in a 96-well plate containing incubation/NADPH regenerating buffer. Specific isoenzymes and substrates were added and incubated at 37° C. Reactions were terminated at different times, depending on the assays, and plates read on a Fluoroskan Ascent at the appropriate emission/excitation wavelengths. Concentration-response curves performed in duplicate for known inhibitors for each isoenzyme were tested in every assay as positive control.

[2] = tested on: receptors associated with pain-related syndromes (e.g. adenosine and sodium channel); assay: Radioligand binding assay among 73 primary molecular targets; conditions: SC12 at fixed concentration of 30 microM
[3] = tested on: AY-27 rat bladder cancer cell-line
[4] = tested on: HLA-DR+/CD11c+/CD123- mDCs; assay: FACS analysis of myeloid DC activation in whole blood; type: cell-based, human; conditions: 24 hours, 0.1 and 0.5 uM, three donors
Description: (§1) A flow cytometric analysis was performed on whole blood from three donors after treatment with two compound concentrations for 24 h. The FACS analysis for donor 1 and donor 2 was made on another day than donor 3. The compound concentrations were as follows:
(§2) The FACS analysis was used to identify whether the test compounds could induce activation of B cells, and two different subsets of dendritic cells, namely the myeloid CD11c+/CD123− DCs and the plasmacytoid CD11c−/CD123+ DCs. The following markers were studied to identify the activation status of the different subsets:
(§3) The FACS staining was performed according to the manufacturer's instructions. Lysis of red blood cells was performed before FACS staining in order to minimize auto-florescence. To include as many B cells and DCs in the study as possible the FACS analyses were performed on 500,000 cells in total for each staining. A P1 gate was set only to include relevant cells on FSC vs. SSC (see FIGS. 12-15). The results of the individual analysis were present as Mean Fluorescence Intensity
The analysis of myeloid DCs was based on HLA-DR+/CD11c+/CD123-cells, thus all analyzed cells was included in the HLA-DR+ (P3) gate and CD11c+/CD123− (Q4) gate (see gates in FIGS. 13-15).

[5] = tested on: human PBMCs; assay: IL-6 secretion in human PBMCs, two batches of Compound A and SC12; type: cell-based; conditions: Homo sapiens, PBMC, 24 h
Description: PBMCs were purified from two donors and plated into 96 well plates at 2×10^5 cells/well in RPMI media including human 2% heat inactivated AB serum, glutamine, Pen-strep and R-mercapto-ethanol. The cells were treated with TLR7 agonists for 24 h in 4 doses. The conditioned media was removed for ELISA analyses for IL-6, and the EC50 value determined for each compound and each batch.
All compounds were tested in four concentrations (10-1-0.1-0.01 micromolar).
Concentrations of IL-6 were determined by ELISA from R&D Systems using the Microsoft Excel software. The results were analyzed in Graph Pad Prism in order to prepare dose-response curves, and for determination of EC50 values.

[6] = tested on: PBMCs; assay: IL-6 and TNF-alpha secretion in PBMCs from three donors (ELISA); type: cell-based, human; conditions: Homo sapiens, PBMC
Description: EC50 values were determined for control and each drug candidate for IL-6 and TNF-alpha secretion. […] The cells were treated with TLR7 agonists for 24 hours in 7 doses. The conditioned media was removed for ELISA analyses for IL-6 and TNF-alpha, and cell survival determined by the XTT method according to the protocol from the supplier. […] Concentrations of IL-6 and TNF-alpha were determined by ELISA from R&D Systems using the Microsoft Excel Software. The results were analyzed in Graph Pad Prism in order to prepare dose-response curves, and for determination of EC50 values.

[7] = tested on: Raw264.7 mouse macrophage cell line; assay: IL-6 and TNF-alpha secretion in Raw264.7 cells (ELISA); type: cell-based; conditions: Mus musculus, RAW264.7, 24 hours treatment, 7 doses
Description: EC50 values were determined for control and each drug candidate for IL-6 and TNF-alpha secretion. […] The cells were plated in 96 well plates and treated with TLR7 agonists for 24 hours in 7 doses. The conditioned media was removed after 24 hours for ELISA analyses. The cells were subsequently assayed for viability using the XTT assay according to the guidelines from the supplier. […] The experiment was performed in quadruplicate wells for each testing series, and the supernatant pooled and measured by ELISA in triplicates. Concentrations of IL-6 and TNF-alpha were determined by ELISA from R&D Systems using the Microsoft Excel Software. The results were analyzed in Graph Pad Prism in order to prepare dose-response curves, and for determination of EC50 values.

[8] = tested on: HLA-DR+/CD20+ B cells; assay: FACS analysis of B cell activation (CD40) in whole blood; type: cell-based, human; conditions: 24 hours, 2 and 10 uM, three donors
Description: as §1
B cell activation: 2 and 10 uM
as §2, §3
The analysis of expression of the activation marker CD40 on B cells was made on double positive HLA-DR (MHC class II) (P4 gate) and CD20 cells (B cell marker) (P8 gate).

[9] = tested on: whole blood; assay: Cytokine secretion in human whole blood assay (ELISA); type: cell-based
Description: A volume of approximately 55 mL fresh whole blood was drawn in heparinized Vacutainers from three healthy adult anonymous volunteers as described (J. A. Ida, Journal of Immunol Methods, 310, 2006, 86-99). […] Before drawing the blood, the compounds were added to 96 well round bottom plates in a 10× diluted sample at 20 ul. The compounds were diluted in RPMI media without serum but with antibiotics. Antibiotics were added at a 10× concentration. After drawing the blood, the whole blood sample was gently mixed to obtain a homogeneous sample, and 180 ul was added to each well.
After 6 hours and 24 hours incubation, plasma was removed for ELISA (IL-6, IL-10, IL-12p40 and IFN-alpha). ELISA was made at the 6 and 24 hours time point for all concentrations. After 24 hours incubation with selected compound concentrations, cells were analyzed for activation markers by FACS.
All compounds were setup in concentrations at 0-0.01-0.03-0.1-0.5-2.0-10.0 micromolar as the final concentration. Vehicle control was DMSO control, where we used the highest concentration used for the compounds. After addition of blood, all plates were gently agitated at 37° C. and 5% CO2 until harvest. The samples were removed after 6 or 24 hours incubation, and pooled into appropriate tubes (2 ml).
Concentrations of cytokines were determined by ELISA from R&D Systems. The results were analyzed in Graph Pad Prism in order to prepare dose-response
curves, and for determination of EC50 values. FACS analysis was made by using Becton-Dickinson FACSDiva software and subsequently illustrated in Graph Pad Prism.

[10] = day 12, group 1 Imiquimod 0.1%, group 2 SC12 0.38%

Chain of CYP2E1 (P05181 whole entry, looked up): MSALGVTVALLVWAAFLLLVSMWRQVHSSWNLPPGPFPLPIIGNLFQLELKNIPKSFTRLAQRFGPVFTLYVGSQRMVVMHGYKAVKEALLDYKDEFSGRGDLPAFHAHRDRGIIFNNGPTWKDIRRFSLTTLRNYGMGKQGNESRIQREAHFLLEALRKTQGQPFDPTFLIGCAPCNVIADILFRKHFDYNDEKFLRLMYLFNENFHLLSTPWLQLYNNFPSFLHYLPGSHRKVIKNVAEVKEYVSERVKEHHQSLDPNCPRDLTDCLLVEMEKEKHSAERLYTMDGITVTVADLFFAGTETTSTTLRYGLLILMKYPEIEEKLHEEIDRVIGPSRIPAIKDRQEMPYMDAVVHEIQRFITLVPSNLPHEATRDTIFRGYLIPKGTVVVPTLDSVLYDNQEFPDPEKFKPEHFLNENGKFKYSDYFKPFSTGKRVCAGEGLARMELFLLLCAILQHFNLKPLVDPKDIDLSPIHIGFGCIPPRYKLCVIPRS

## CCN(CC)C(=S)S [DDTC, reference compound]
[1]
  IC50: 0.85 ± 0.01 µM

## CC(C)Cn1cnc2c(N)nc3ccccc3c21 [Imiquimod, reference compound]
[2]
  Binding to receptors associated with pain-related syndromes: shown to bind
[3]; day 12
  Number of rats with a tumor positive bladder: 9 of 14
[3]; [10]
  Rats with pT2 Tumor, number (% of 14): 9 (64.3%)
  Tumor free rats, number (% of 14): 5 (35.7%)
[3]; day 12, intravesical 0.5 ml on day 2 and 5, group 1 Imiquimod 0.1%, group 2 SC12 0.38%
  Mean weight of the rat bladders: 0.1201 grams
[3]; group 1 Imiquimod 0.1%, group 2 SC12 0.38%
  Mean number of tumors per rat bladder: 1.71
[3]; intravesical instillation day 2 and 5
  Signs of toxicity: No signs of toxicity
[3]; tumor positive bladders, group 1 Imiquimod 0.1%, group 2 SC12 0.38%
  Mean invasion depth: 1.3333 mm
[4]
  CCR7 expression on mDCs: showed high CCR7 expression
  CD80 expression on mDCs: weak expression of CD80 in donor 1 and 2
[5]; Donor 1, 4 doses
  EC50: 18 µM
[5]; Donor 2, 4 doses
  EC50: 18.4 µM
[6]; 24 h, Donor 1, 24 hours, read-out: IL-6 secretion MC50
  EC50: 6.35 µM
[6]; 24 h, Donor 1, 24 hours, read-out: TNFa secretion MC50
  EC50: 3.07 µM
[6]; 24 h, Donor 2, 24 hours, read-out: IL-6 secretion MC50
  EC50: 1.99 µM
[6]; 24 h, Donor 2, 24 hours, read-out: TNFa secretion MC50
  EC50: 24.9 µM
[6]; 24 h, Donor 3, 24 hours, read-out: IL-6 secretion MC50
  EC50: 4.64 µM
[6]; 24 h, Donor 3, 24 hours, read-out: TNFa secretion MC50
  EC50: 22.4 µM
[6]; D1, first experiments on three donors, read-out: EC50 values, IL-6 secretion
  EC50: 6.35 µM
[6]; D2, first experiments on three donors, read-out: EC50 values, IL-6 secretion
  EC50: 1.99 µM
[6]; D3, first experiments on three donors, read-out: EC50 values, IL-6 secretion
  EC50: 4.64 µM
[6]; average of three donors, read-out: IL-6 secretion Average EC50
  EC50: 4.33 µM
[6]; average of three donors, read-out: TNFa secretion Average EC50
  EC50: 16.8 µM
[7]; read-out: EC 50 IL 6
  EC50: 2 µM
[7]; read-out: EC 50 TNF-alpha
  EC50: 2.16 µM
[8]
  CD40 expression (MFI) on B cells: increased expression in all three donors
[9]; 6 h incubation, up to 10.0 micromolar
  IL-6 secretion induced: low and insignificant amounts of IL-6
[9]; 6 hours incubation
  IFN-alpha secretion induced: did not induce IFN-alpha secretion
  IL-10 production: no IL-10 production was seen
  IL-12p40 secretion induced: did not induce IL-12p40 secretion
[9]; 24 hours incubation
  IL-12p40 secretion induced: did not induce IL-12p40
